Counter-ions that a name gives are not always drawn.

The first experiment deals with platelet aggregation (platelet rich plasma (PRP)). The experiment can be described thus: Platelet Aggregation Assay (inhibition of agonist-induced platelet aggregation in platelet rich plasma). It counts as cell-based. Particulars: with esterase, ester prodrugs preincubated with 100 IU/mL porcine liver esterase 2 hours at 37° C., human PRP, 100 μM ADP, read-out: Platelet Aggregation Assay IC50 (with esterase). As for the experimental part:
Platelet Aggregation Assay: Venous blood was obtained from the arm of a healthy human donor who was drug-free and aspirin-free for at least two weeks prior to blood collection. Blood was collected into 10 mL citrated Vacutainer tubes. The blood was centrifuged for 15 minutes at 150× g at room temperature, and platelet-rich plasma (PRP) was removed. The remaining blood was centrifuged for 15 minutes at 1500× g at room temperature, and platelet-poor plasma (PPP) was removed. Samples were assayed on a aggregometer (PAP-4 Platelet Aggregation Profiler), using PPP as the blank (100% transmittance). 200 μL of PRP was added to each micro test tube, and transmittance was set to 0%. 20 μL of various agonists (ADP, collagen, arachidonate, epinephrine, thrombin) were added to each tube, and the aggregation profiles were plotted (% transmittance versus time). The results are expressed as % inhibition of agonist-inducedplatelet aggregation. For the IC50 evaluation, the test compounds were added at various concentrations prior to the activation of the platelets.
Ester prodrugs were preincubated (10^-3 M F.C.) with 100 IU/mL Porcine liver esterase (Sigma Chemical Co., St. Louis, Mo., #E-3128) for 2 hours at 37° C. Aliquots are then diluted in 0.1M Tris, p H 7.4, to the desired concentrations. Aliquots of 20 μl of the esterase pretreated prodrugs are added to 200 μl of human platelet rich plasma. Samples were placed in platelet profiler (aggregometer) for 8 minutes at 37° C., followed by the addition of 100 μM Adenosine Diphosphate, (Sigma Chemical Co., St. Louis, Mo., #A-6521), to induce platelet aggregation. Platelet aggregation was allowed to proceed for 5 minutes. Percent inhibition is calculated using percent aggregation in the presence of the test compound divided by percent aggregation of control, times 100. This value is subtracted from 100, yielding percent inhibition. Calculation of IC50 is performed on a Texas Instruments TI59 with an IC50 program.
Table A below sets forth the antiplatelet activity of representative compounds of the present invention. The indicated compounds were tested for their ability to inhibit platelet aggregation (using platelet rich plasma (PRP)). The IC50 value (the concentration of antagonist which inhibits platelet aggregation by 50% relative to a control lacking the antagonist) is shown. In Table A the IC50 values are expressed as: +++=IC50 of <10 μM; ++=IC50 of […]; +=IC50 of 50-100 μM (μM=micromolar).
Consider `CCCCOC(=O)N[C@@H](CNC(=O)Cc1nnc(-c2ccc(C(=N)N)cc2)s1)C(=O)OC` [Example 1, Methyl N^3-[2-{2-(4-amidinophenyl)-1,3,4-thiadiazol-5-yl}-acetyl]-N^2-(n-butyloxycarbonyl)-2,3-(S)-diaminopropionate TFA salt], for which the half-inhibitory concentration (IC50) was < 10 µM.

As for `COC(=O)[C@H](CNC(=O)Cc1nnc(-c2ccc(C(=N)N)cc2)s1)NS(=O)(=O)c1cccc(C)c1` [Example 25, Methyl N^3-[2-{2-(4-amidinophenyl)-1,3,4-thiadiazol-5-yl}-acetyl]-N^2-(3-methylphenylsulfonyl)-2,3-(S)-diaminopropionate TFA salt], the concentration for half-maximal inhibition (IC50) was < 10 µM. On the same count and under the same terms, the figure for `CNC(=N)c1ccc(-c2nnc(CC(=O)NC[C@H](NS(=O)(=O)c3cccc(C)c3)C(=O)OC)s2)cc1` [Example 44, Methyl N^3-[2-{2-(4-N-methylamidinophenyl)-1,3,4-thiadiazol-5-yl}-acetyl]-N^2-(3-methylphenylsulfonyl)-2,3-(S)-diaminopropionate TFA salt] is < 10 µM; for `CCCCNC(=N)c1ccc(-c2nnc(CC(=O)NC[C@H](NS(=O)(=O)c3cccc(C)c3)C(=O)OC)s2)cc1` [Example 64, Methyl N^3-[2-{2-(4-N-n-butylamidinophenyl)-1,3,4-thiadiazol-5-yl}-acetyl]-N^2-(3-methylphenylsulfonyl)-2,3-(S)-diaminopropionate TFA salt] it is < 10 µM.

Turning to `COC(=O)[C@H](CNC(=O)Cc1nnc(-c2ccc(C(=N)N)cc2)s1)NS(=O)(=O)c1ccccc1C` [Example 88, Methyl N^3-[2-{2-(4-amidinophenyl)-1,3,4-thiadiazol-5-yl}-acetyl]-N -(2-methylphenylsulfonyl)-2,3-(S)-diaminopropionate TFA salt], the concentration for half-maximal inhibition (IC50) was < 10 µM. Regarding `COC(=O)[C@H](CNC(=O)Cc1nnc(-c2ccc(C(=N)N)cc2)s1)NS(=O)(=O)c1c(C)noc1C` [Example 96, Methyl N^3-[2-{2-(4-amidinophenyl)-1,3,4-thiadiazol-5-yl}-acetyl]-N^2-(3,5-dimethylisoxazol-4-ylsulfonyl)-2,3-(S)-diaminopropionate TFA salt], the concentration for half-maximal inhibition (IC50) was < 10 µM. Regarding `COC(=O)[C@H](CNC(=O)CCCc1nnc(C2CCNCC2)s1)NS(=O)(=O)c1cccc(C)c1` [Example 133, Methyl N^3-[4-{2-(4-piperidinyl)-1,3,4-thiadiazol-5-yl}-butyryl]-N^2-(3-methylphenylsulfonyl)-2,3-(S)-diaminopropionate TFA salt], the IC50 is < 10 µM. On the same count and under the same terms, as for `COC(=O)[C@H](CNC(=O)Cc1nnc(-c2ccc(NC(=N)N)cc2)s1)NS(=O)(=O)c1cccc(C)c1` [Example 145, Methyl N^3-[2-{2-(4-guanidinophenyl)-1,3,4-thiadiazol-5-yl}-acetyl]-N^2-(3-methylphenylsulfonyl)-2,3-(S)-diaminopropionate TFA salt], the figure is < 10 µM; as for `COC(=O)[C@H](CNC(=O)Cc1nnc(-c2ccc(C(N)=O)cc2)s1)NS(=O)(=O)c1cccc(C)c1` [Example 170, Methyl N^3-[2-{2-(4-amidophenyl)-1,3,4-thiadiazol-5-yl}-acetyl]-N^2-(3-methylphenylsulfonyl)-2,3-(S)-diaminopropionate], 50 to 100 µM.

For the molecule `CCCCOC(=O)N[C@@H](CNC(=O)CSc1nnc(-c2ccc(C(=N)N)cc2)s1)C(=O)OC` [Example 192, Methyl N^3-[2-{2-(4-amidinophenyl)-1,3,4-thiadiazol-5-ylthio}acetyl]-N^2-(n-butoxycarbonyl)-2,3-(S)-diaminopropionate HCl salt], the half-inhibitory concentration (IC50) is < 10 µM. Still for that read-out and setting: as for `CCCCOC(=O)N[C@@H](CNC(=O)CSc1nnc(-c2ccc(NC(=N)N)cc2)o1)C(=O)OC` [Example 242, Methyl N^3-[2-{2-(4-guanidinophenyl)-1,3,4-oxadiazol-5-ylthio}acetyl]-N^2-(n-butoxycarbonyl)-2,3-(S)-diaminopropionate TFA salt], the figure is 10 to 50 µM; as for `CCCCOC(=O)N[C@@H](CNC(=O)CSc1nnc(-c2ccc(C(=N)N)cc2)o1)C(=O)OC` [Example 258, Methyl N^3-[2-{2-(4-amidinophenyl)-1,3,4-oxadiazol-5-ylthio}-acetyl]-N^2-(n-butyloxycarbonyl)-2,3-(S)-diamino propionate HCl salt], < 10 µM.

In the case of `CCCCOC(=O)N[C@@H](CNC(=O)Cc1nnc(-c2ccc(C(=N)N)cc2)o1)C(=O)OC` [Example 318, Methyl N^3-[2-{2-(4-amidinophenyl)-1,3,4-oxadiazol-5-yl}-acetyl]-N-^2-(n-butyloxycarbonyl)-2,3-(S)-diaminopropionate TFA salt], the concentration for half-maximal inhibition (IC50) lay in the range of 50 to 100 µM. Still for that read-out and setting: the figure for `CCCCOC(=O)N[C@@H](CNC(=O)Cc1nnc(-c2ccc(NC(=N)N)cc2)o1)C(=O)OC` [Example 335, Methyl N^3-[2-{2-(4-guanidinophenyl)-1,3,4-oxadiazol-5-yl}-acetyl]-N2-(n-butyloxycarbonyl)-2,3-(S)-diaminopropionate TFA salt] is < 10 µM.

Still in this experiment, the particulars now being: without esterase, human PRP, read-out: Platelet Aggregation Assay IC50 (without esterase).
With `CCCCOC(=O)N[C@@H](CNC(=O)Cc1nnc(-c2ccc(C(=N)N)cc2)s1)C(=O)O` [Example 2, N^3-[2-{2-(4-amidinophenyl)-1,3,4-thiadiazol-5-yl}-acetyl]-N^2-(n-butyloxycarbonyl)-2,3-(S)-diaminopropionic acid HCl salt], the concentration for half-maximal inhibition (IC50) was < 10 µM.

Consider `Cc1cccc(S(=O)(=O)N[C@@H](CNC(=O)Cc2nnc(-c3ccc(C(=N)N)cc3)s2)C(=O)O)c1` [Example 26, N^3-[2-{2-(4-amidinophenyl)-1,3,4-thiadiazol-5-yl}-acetyl]-N^2-(3-methylphenylsulfonyl)-2,3-(S)-diaminopropionic acid HCl salt], for which the concentration for half-maximal inhibition (IC50) was < 10 µM. The same measure, in the same setting: as for `CNC(=N)c1ccc(-c2nnc(CC(=O)NC[C@H](NS(=O)(=O)c3cccc(C)c3)C(=O)O)s2)cc1` [Example 63, N^3-[2-{2-(4-N-methylamidinophenyl)-1,3,4-thiadiazol-5-yl}-acetyl]-N^2-(3-methylphenylsulfonyl)-2,3-(S)-diaminopropionic acid HCl salt], the figure is < 10 µM; as for `CCCCNC(=N)c1ccc(-c2nnc(CC(=O)NC[C@H](NS(=O)(=O)c3cccc(C)c3)C(=O)O)s2)cc1` [Example 65, N^3-[2-{2-(4-N-n-butylamidinophenyl)-1,3,4-thiadiazol-5-yl}-acetyl]-N^2-(3-methylphenylsulfonyl)-2,3-(S)-diaminopropionic acid HCl salt], < 10 µM. Consider `Cc1ccccc1S(=O)(=O)N[C@@H](CNC(=O)Cc1nnc(-c2ccc(C(=N)N)cc2)s1)C(=O)O` [Example 89, N^3-[2-{2-(4-amidinophenyl)-1,3,4-thiadiazol-5-yl}-acetyl]-N^2-(2-methylphenylsulfonyl)-2,3-(S)-diaminopropionate acid HCl salt], for which the IC50 is < 10 µM.

As for `Cc1noc(C)c1S(=O)(=O)N[C@@H](CNC(=O)Cc1nnc(-c2ccc(C(=N)N)cc2)s1)C(=O)O` [Example 97, N^3-[2-{2-(4-amidinophenyl)-1,3,4-thiadiazol-5-yl}-acetyl]-N^2-(3,5-dimethylisoxazol-4-ylsulfonyl)-2,3-(S)-diaminopropionic acid HCl salt], the IC50 was < 10 µM. Same read-out and setting: as for `Cc1cccc(S(=O)(=O)N[C@@H](CNC(=O)CCCc2nnc(C3CCNCC3)s2)C(=O)O)c1` [Example 134, N^3-[4-{2-(4-piperidinyl)-1,3,4-thiadiazol-5-yl}-butyryl]-N^2-(3-methylphenylsulfonyl)-2,3-(S)-diaminopropionic acid TFA salt], the figure is < 10 µM; as for `Cc1cccc(S(=O)(=O)N[C@@H](CNC(=O)Cc2nnc(-c3ccc(NC(=N)N)cc3)s2)C(=O)O)c1` [Example 146, N^3-[2-{2-(4-guanidinophenyl)-1,3,4-thiadiazol-5-yl}-acetyl]-N^2-(3-methylphenylsulfonyl)-2,3-(S)-diaminopropionic acid TFA salt], < 10 µM.

Turning to `Cc1cccc(S(=O)(=O)N[C@@H](CNC(=O)Cc2nnc(-c3ccc(C(N)=O)cc3)s2)C(=O)O)c1` [Example 171, N^3-[2-{2-(4-Amidophenyl)-1,3,4-thiadiazol-5-yl}-acetyl]-N^2-(3-methylphenylsulfonyl)-2,3-(S)-diaminopropionic acid], the 50% inhibitory concentration (IC50) is < 10 µM. Turning to `CCCCOC(=O)N[C@@H](CNC(=O)CSc1nnc(-c2ccc(C(=N)N)cc2)s1)C(=O)O` [Example 193, N^3-[2-{2-(4-Amidinophenyl)-1,3,4-thiadiazol-5-ylthio}acetyl]-N^2-(n-butoxycarbonyl)-2,3-(S)-diaminopropionic acid HCl salt], the IC50 is < 10 µM.

Source of the values: patent US5668159A, “1,3,4-thiadiazoles and 1,3,4-oxadiazoles as IIb/IIIa antagonists” (The DuPont Merck Pharmaceutical Company, priority 1996, dated 1997).
